According to patent US10273279B2, “Protease activated receptor-1 (PAR1) derived cytoprotective polypeptides and related methods” (THE SCRIPPS RESEARCH INSTITUTE, priority 2011, dated 2019):

Tests used:
[1] = target: T1, endogenous PAR1 on EA.hy.926 endothelial cells (Homo sapiens, UniProt P25116); test: On cell Western (OCW) immunoassay of PAR1 cleavage on EA.hy.926 endothelial cells; format: cell-based; conditions: 1 hr at 4° C., 0.5 nM thrombin or 25 nM APC
T1 construct: untransfected EA.hy.926 endothelial cells expressing endogenous EPCR and PAR1; host or cells: EA.hy.926 endothelial cells
T1 sequence (P25116 22-425): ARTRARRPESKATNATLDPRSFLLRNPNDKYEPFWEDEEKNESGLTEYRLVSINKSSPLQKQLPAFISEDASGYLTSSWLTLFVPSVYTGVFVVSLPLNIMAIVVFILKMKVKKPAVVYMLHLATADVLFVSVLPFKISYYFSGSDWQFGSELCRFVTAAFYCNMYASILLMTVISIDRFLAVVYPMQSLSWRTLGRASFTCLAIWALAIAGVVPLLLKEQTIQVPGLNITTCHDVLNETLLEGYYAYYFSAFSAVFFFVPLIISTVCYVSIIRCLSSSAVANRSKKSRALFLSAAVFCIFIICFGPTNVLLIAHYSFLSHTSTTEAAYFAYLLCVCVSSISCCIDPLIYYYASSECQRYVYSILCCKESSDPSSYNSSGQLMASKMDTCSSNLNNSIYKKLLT
Description: Subsequently, these antibodies were used in an on cell Western (OCW) immunoassay on EA.hy.926 endothelial cells to determine whether APC cleaves PAR1 at Arg^46 in the presence of endogenous PAR1 and EPCR expression. […] Incubations were performed at 4° C. to minimize receptor recycling and internalization. After fixation and staining, antibody signals were normalized for total cell number using the cell permeable nuclear dye Draq5 and antibody signals for the goat anti-PAR1 antibodies (Ab87 and Origene) and ATAP2 were expressed as a fraction of the signal obtained for WEDE15 reflecting the total PAR1 present on the cell surface.
Detailed methods and steps used for the study shown in FIG. 5 are as follows: EA.hy.926 cells (ATCC: CRL-2922) were grown in black clear bottom 96 well plates (Nunc) in DMEM (Invitrogen #12430) supplemented with glutamax (Invitrogen #35050) and 10% FBS (Hyclone #35-011-CV) in a 37° C. cell incubator with a humidified atmosphere and 5% CO2 in air until confluency. […] After final washing with PBS/0.1% Tween, IR fluorescence of bound antibodies was determined using the Odyssey (Licor). Background fluorescence was determined by omitting the primary antibody and subtracting background values from all observed values.

[2] = target: T2, SEAP-PAR1 (Homo sapiens, UniProt P25116); test: SEAP-PAR1 cleavage reporter on transfected HEK-293 cells (SEAP release); format: cell-based; conditions: cells containing wild-type EPCR
T2 construct: we created a full-length PAR-1 construct linked at the N-terminus to an alkaline phosphatase reporter group (SEAP); expressed in transfected cells
T2 sequence (P25116 22-425): T1 sequence (P25116 22-425)
Description: To facilitate analysis of APC-mediated PAR-1 activation, we created a full-length PAR-1 construct linked at the N-terminus to an alkaline phosphatase reporter group (SEAP). Selection of stable cell lines expressing both endothelial protein C receptor (EPCR) (wt or E86A) and SEAP-PAR1 allowed for a reliable and reproducible analysis of EPCR-dependent PAR-1 activation by APC. Mass-spec analysis of cleavage fragments generated by APC of a synthetic PAR-1 N-terminal tail peptide (TR33-62) identified both Arg^41 and Arg^46 as potential cleavage sites for APC proteolysis, as noted above. […] R41Q-SEAP-PAR1 was cleaved by APC in the presence of EPCR. This surprising result was also obtained for R41A-SEAP PAR1.
2009; 113:5970-5978. SEAP-PAR1, either in the presence or absence of wt-EPCR, were transfected into HEK-293 cells to obtain stable cells expressing SEAP-PAR1 or wt-EPCR/SEAP-PAR1. Mutations in SEAP-PAR1 were introduced using the Quickchange method (Agilent). Cells were grown in 96-wells plates to confluency in Dulbeco's modified Eagle media (DMEM): Ham's F-12 (Invitrogen) supplemented with penicillin-streptomycin-glutamine (PSG) (Gibco) and 10% fetal bovine serum (Omega) in a humidified atmosphere at 37° C. and 5% CO2 Cells were washed with Hank's balanced salt solution (HBSS; Invitrogen) supplemented with 1.3 mM CaCl2, 0.6 mM MgCl2 and 0.1% endotoxin free BSA (Calbiochem) and incubated with APC. After 60 min, SEAP release was determined using 1-step PNPP (Pierce). Values were corrected for background activity derived from the same cells incubated in the absence of APC and expressed as a percentage of total SEAP available on the cell membrane.

[3] = test system: EA.hy.926 endothelial cells; test: Staurosporine-induced endothelial cell apoptosis (Apopercentage dye); format: cell-based, human; conditions: 4 hrs pretreatment, 50 μM NPND, 50 μM scr-NPND or 10 μM TFLL, staurosporine 10 μM
Description: Activated Protein C (APC) conveys anti-apoptotic activity to EA.hy.926 cells that requires functional PAR1 receptor and APC binding to the endothelial protein C receptor (EPCR). See, e.g., Mosnier at al., Biochem J. 2003; 373:65-70; and Mosnier at al., Blood. 2007; 109:3161-3172.
Methods: EA.hy.926 cells (ATCC: CRL-2922) were grown in 24 well plates in DMEM (Invitrogen #12430) supplemented with glutamax (Invitrogen #35050) and 10% FBS (Hyclone #35-011-CV) in a 37° C. cell incubator with a humidified atmosphere and 5% CO2 in air until confluency. Cells were treated for 4 hrs with vehicle control, 50 μM NPND, 50 μM scr-NPND or 10 μM TFLL after which staurosporine (10 μM) and the Apopercentage dye (Biocolor) were added according the manufacturer's instructions. After 1 hr cells were washed with 2×1 ml PBS and 110 μl of the dye release agent was added to the cells. Subsequently 100 μl aliquots were transferred to a black 96 well plate and fluorescence was measured (530 nm excitation/580 nm emission). Apoptosis was expressed as a percentage of cells treated with 10 mM H2O2 for which apoptosis was set at 100%.

## thrombin
[1]
  decrease of ATAP2 signal compared to WEDE15: not significantly different
[2]
  cleavage of wt-PAR1 (SEAP-PAR1): cleaved

## GDENENEKPNWYELKEPDSF (scrambled sequence) [scr-TR47-66, control scrambled TR47-66 peptide containing scrambled residues 47-66, reference compound]
[3]
  inhibition of staurosporine-induced endothelial cell apoptosis: did not convey detectable anti-apoptotic effects

## APC: Activated Protein C, serine protease with anticoagulant and cytoprotective cell signaling activities
[1]
  decrease of ATAP2 signal compared to WEDE15: 50%
[2]
  cleavage of wt-PAR1 (SEAP-PAR1): cleaved

## NPNDKYEPFWEDEEKNESGL (listed as Homo sapiens) [TR47-66]
[3]
  inhibition of staurosporine-induced endothelial cell apoptosis: significantly inhibited
[3]; listed as NPND-peptide
  inhibition of staurosporine-induced endothelial cell apoptosis: inhibited staurosporine-induced endothelial cell apoptosis
